Results from publication PMC12155096 (International Journal of Molecular Sciences, 2025).
Where a name gives a salt, the structure may show the parent alone. Read-outs that look alike come from different tables or passages of the source.

Columns and labels:
human CYP2C9 [1] = biological target: T1, human CYP2C9 (Homo sapiens, UniProt P11712); experiment: biochemical; conditions: for AC50: CYP2C9 AC50 (half-maximal activity concentration)
human CYP2C19 [2] = biological target: T2, human CYP2C19 (Homo sapiens, UniProt P33261); experiment: biochemical; conditions: for AC50: CYP2C19 AC50 (half-maximal activity concentration)
T2 sequence (P33261 whole entry): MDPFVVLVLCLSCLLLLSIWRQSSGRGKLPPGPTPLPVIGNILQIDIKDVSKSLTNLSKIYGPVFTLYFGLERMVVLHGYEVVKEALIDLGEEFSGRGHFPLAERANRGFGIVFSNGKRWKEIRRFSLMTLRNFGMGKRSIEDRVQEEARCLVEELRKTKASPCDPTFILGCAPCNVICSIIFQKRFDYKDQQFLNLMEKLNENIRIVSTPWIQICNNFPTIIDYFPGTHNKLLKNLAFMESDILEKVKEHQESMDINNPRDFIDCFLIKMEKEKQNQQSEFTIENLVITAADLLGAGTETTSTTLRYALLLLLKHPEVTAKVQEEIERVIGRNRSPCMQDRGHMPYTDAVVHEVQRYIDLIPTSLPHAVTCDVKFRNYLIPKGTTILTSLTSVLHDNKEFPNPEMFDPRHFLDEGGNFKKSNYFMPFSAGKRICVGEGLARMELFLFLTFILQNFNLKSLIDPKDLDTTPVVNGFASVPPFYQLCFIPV

CYP3A4 [3] = biological target: T3, CYP3A4 (Homo sapiens, UniProt P08684); experiment: biochemical; conditions: for AC50: CYP3A4 AC50 (half-maximal activity concentration)
T3 sequence (P08684 whole entry): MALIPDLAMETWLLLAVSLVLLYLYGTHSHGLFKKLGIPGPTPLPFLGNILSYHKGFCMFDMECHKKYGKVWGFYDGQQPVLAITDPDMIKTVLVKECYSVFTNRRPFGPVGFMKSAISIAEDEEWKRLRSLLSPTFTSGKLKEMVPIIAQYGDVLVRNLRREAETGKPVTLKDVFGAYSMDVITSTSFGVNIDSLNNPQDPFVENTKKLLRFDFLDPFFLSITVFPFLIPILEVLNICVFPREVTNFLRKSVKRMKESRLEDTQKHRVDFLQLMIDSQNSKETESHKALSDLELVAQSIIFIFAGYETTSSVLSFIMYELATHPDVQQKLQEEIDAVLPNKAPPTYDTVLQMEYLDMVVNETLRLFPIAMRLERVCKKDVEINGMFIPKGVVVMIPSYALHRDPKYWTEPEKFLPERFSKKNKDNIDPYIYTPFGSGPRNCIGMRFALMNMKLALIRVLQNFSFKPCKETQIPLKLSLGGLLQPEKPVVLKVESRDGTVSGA

human CYP2D6 [4] = biological target: T4, human CYP2D6 (Homo sapiens, UniProt P10635); experiment: biochemical; conditions: CYP2D6 AC50 (half-maximal activity concentration)
T4 sequence (P10635 whole entry): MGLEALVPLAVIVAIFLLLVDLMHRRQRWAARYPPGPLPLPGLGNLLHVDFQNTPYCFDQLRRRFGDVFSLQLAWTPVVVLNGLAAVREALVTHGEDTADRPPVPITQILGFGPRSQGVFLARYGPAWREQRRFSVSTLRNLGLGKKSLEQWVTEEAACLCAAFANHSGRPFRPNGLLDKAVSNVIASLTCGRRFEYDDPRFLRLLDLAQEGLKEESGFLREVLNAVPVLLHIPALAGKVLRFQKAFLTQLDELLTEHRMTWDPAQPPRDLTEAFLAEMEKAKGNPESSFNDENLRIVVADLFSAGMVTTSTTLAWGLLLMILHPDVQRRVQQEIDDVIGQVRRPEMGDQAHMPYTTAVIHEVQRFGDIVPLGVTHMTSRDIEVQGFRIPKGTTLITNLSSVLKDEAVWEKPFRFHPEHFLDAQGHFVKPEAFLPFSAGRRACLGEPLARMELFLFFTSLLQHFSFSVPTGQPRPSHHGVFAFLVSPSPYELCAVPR

[5] = biological target: Photinus pyralis (firefly) luciferase (Photinus pyralis, UniProt P08659); experiment: biochemical; type: biochemical
Chain of Photinus pyralis (firefly) luciferase (P08659 whole entry): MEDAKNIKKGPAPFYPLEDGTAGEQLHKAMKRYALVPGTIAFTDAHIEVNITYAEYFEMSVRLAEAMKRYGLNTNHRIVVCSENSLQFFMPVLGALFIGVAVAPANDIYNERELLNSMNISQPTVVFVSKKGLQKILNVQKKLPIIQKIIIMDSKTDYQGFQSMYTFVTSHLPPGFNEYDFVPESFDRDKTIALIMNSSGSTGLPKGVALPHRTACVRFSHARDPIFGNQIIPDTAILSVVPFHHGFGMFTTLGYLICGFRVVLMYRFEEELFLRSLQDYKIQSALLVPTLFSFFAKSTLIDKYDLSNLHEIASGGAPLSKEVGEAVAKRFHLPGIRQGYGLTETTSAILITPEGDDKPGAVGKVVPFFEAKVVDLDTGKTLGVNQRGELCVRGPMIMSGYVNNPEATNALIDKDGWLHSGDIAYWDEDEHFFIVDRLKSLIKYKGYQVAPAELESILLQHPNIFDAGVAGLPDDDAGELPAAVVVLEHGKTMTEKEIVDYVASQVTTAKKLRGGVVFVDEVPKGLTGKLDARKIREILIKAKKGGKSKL

human CYP1A2 [6] = biological target: T5, human CYP1A2 (Homo sapiens, UniProt P05177); conditions: for CYP1A2 Efficacy (in parenthesis): human
T5 sequence (P05177 1-516): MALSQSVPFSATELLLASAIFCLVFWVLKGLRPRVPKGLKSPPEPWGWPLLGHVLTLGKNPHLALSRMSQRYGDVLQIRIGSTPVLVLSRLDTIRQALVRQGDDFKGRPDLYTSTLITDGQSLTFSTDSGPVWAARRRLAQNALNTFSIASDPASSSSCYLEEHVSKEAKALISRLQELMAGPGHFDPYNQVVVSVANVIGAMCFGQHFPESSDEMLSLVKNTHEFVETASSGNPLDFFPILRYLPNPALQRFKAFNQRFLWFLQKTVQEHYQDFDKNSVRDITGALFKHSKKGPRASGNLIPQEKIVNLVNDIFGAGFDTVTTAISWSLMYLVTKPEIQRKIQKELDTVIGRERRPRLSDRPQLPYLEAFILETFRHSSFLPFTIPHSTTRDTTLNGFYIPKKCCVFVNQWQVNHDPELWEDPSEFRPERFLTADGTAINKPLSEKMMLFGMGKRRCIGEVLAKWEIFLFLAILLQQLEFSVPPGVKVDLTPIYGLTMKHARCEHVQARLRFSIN

human CYP2D6 [7] = biological target: T4, human CYP2D6
CYP3A4 [8] = biological target: T3, CYP3A4
human CYP1A2 [9] = biological target: T5, human CYP1A2; experiment: biochemical
human CYP2C19 [10] = biological target: T2, human CYP2C19; conditions: for CYP2C19 Efficacy (in parenthesis): human
human CYP2C9 [11] = biological target: T1, human CYP2C9; conditions: human
[12] = CYP2C9 IC50 (half-maximal inhibitory concentration)
[13] = CYP2C19 IC50 (half-maximal inhibitory concentration)
[14] = CYP1A2 IC50 (half-maximal inhibitory concentration)
[15] = CYP3A4 IC50 (half-maximal inhibitory concentration)

T1 sequence (P11712 whole entry): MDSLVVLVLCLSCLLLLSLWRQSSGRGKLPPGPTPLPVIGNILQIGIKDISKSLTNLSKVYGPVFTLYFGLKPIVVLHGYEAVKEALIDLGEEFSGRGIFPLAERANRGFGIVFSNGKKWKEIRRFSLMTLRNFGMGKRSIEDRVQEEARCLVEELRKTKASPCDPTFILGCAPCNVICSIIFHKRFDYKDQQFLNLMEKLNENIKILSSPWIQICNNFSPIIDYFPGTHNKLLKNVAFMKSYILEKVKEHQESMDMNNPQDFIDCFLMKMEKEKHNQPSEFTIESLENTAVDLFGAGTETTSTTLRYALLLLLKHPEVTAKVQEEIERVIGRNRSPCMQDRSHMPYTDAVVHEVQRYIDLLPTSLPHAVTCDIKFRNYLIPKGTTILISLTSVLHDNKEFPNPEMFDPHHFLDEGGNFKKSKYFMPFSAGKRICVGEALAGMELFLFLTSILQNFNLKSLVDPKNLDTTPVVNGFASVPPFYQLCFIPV

Row | SMILES | AC50 (human CYP2C9 [1]) | AC50 (human CYP2C19 [2]) | AC50 (CYP3A4 [3]) | AC50 (human CYP2D6 [4]) | Luciferase IC50 (half-maximal inhibitory concentration) [5] | CYP1A2 AC50 (half-maximal activity concentration) (human CYP1A2 [6]) | IC50 (human CYP2C9 [1]; [12]) | IC50 (human CYP2C19 [2]; [13]) | CYP2D6 IC50 (half-maximal inhibitory concentration) (human CYP2D6 [7]) | also measured
1 | CC1(C)C(C=C(Cl)Cl)C1C(=O)OCc1cccc(Oc2ccccc2)c1 (stereo not shown) [Permethrin] | 11.2 µM | 5.91 µM | 10.9 µM | 27.5 µM |  |  |  |  |  | 
2 | O[Si](c1ccccc1)(c1ccccc1)c1ccccc1 [Triphenylsilanol] | 0.53 µM | 0.57 µM | 13.7 µM |  | Inactive | Inconclusive inhibitor | 0.53 µM | 0.57 µM | Inactive | CYP1A2 IC50 (half-maximal inhibitory concentration) (human CYP1A2 [6]): Inactive; CYP3A4 IC50 (half-maximal inhibitory concentration) (CYP3A4 [8]): 13.71 ± 1.89 (172 ± 26) µM
3 | CC1(C)C(C=C(Cl)Cl)C1C(=O)OC(C#N)c1ccc(F)c(Oc2ccccc2)c1 (stereo not shown) [Cyfluthrin] | 3.92 µM | 10.4 µM | 4.01 µM | 22.2 µM |  | Inactive |  |  |  | 
4 | O=S1(=O)OCC2C(CO1)C1(Cl)C(Cl)=C(Cl)C2(Cl)C1(Cl)Cl (stereo not shown) [Endosulfan sulfate] |  |  |  |  |  |  |  |  |  | IC50 [5]: 53.2 µM; IC50 (human CYP2C9 [1]; CYP2C9 IC50): 18.7 µM; IC50 (human CYP2C19 [2]; CYP2C19 IC50): 2.25 µM; CYP2D6 IC50 (human CYP2D6 [7]): Inactive; IC50 (human CYP1A2 [9]; CYP1A2 IC50): 47.5 µM; IC50 (CYP3A4 [3]; CYP3A4 IC50): 0.22 µM
5 | O=C(Cl)c1cccc(C(=O)Cl)c1 [1,3-Benzenedicarbonyl dichloride] | 68.7 µM |  | 26.8 µM | 24.9 µM |  | Inactive |  |  |  | CYP2C19 AC50 (half-maximal activity concentration) (human CYP2C19 [10]): Inactive
6 | Clc1ccc(C(c2ccccc2Cl)C(Cl)(Cl)Cl)cc1 (stereo not shown) [o,p'-DDT] | 10.9 µM | 0.35 µM | 11.6 µM |  | Inactive |  | 10.9 µM | 0.35 µM | Inactive | CYP1A2 IC50 (half-maximal inhibitory concentration) (human CYP1A2 [6]): Inactive; CYP2C19 Efficacy (in parenthesis) (human CYP2C19 [10]): 0.35 ± 0.15 (-129 ± 3) %; CYP2C9 Efficacy (in parenthesis) (human CYP2C9 [11]): 10.87 ± 3.7 (-95 ± 6) %; CYP3A4 Efficacy (in parenthesis) (CYP3A4 [8]): 11.59 ± 3.23 (99 ± 19) %; CYP3A4 IC50 (half-maximal inhibitory concentration) (CYP3A4 [8]): 11.59 ± 3.23 (99 ± 19) µM
7 | CCN(CC)C(=O)C(C)Oc1cccc2ccccc12 (stereo not shown) [Napropamide] |  |  |  |  | Inactive |  | 29.9 µM | 0.66 µM | Inactive | IC50 (human CYP1A2 [9]; [14]): 25 µM; IC50 (CYP3A4 [3]; [15]): 7.56 µM
8 | Oc1ccc2ccc3cccc4ccc1c2c34 [1-Hydroxypyrene] |  |  |  |  |  |  | 35.6 µM | 15.7 µM | Inactive | IC50 [5]: 68.7 µM; CYP1A2 Efficacy (in parenthesis) (human CYP1A2 [6]): 0.83 ± 0.11 (-98 ± 1) %; IC50 (human CYP1A2 [9]; [14]): 0.83 µM; CYP2C19 Efficacy (in parenthesis) (human CYP2C19 [10]): 15.71 ± 4.38 (-129 ± 16) %; IC50 (CYP3A4 [3]; [15]): 27.7 µM; CYP2C9 Efficacy (in parenthesis) (human CYP2C9 [11]): 35.57 ± 0 (-80 ± 9) %; CYP3A4 Efficacy (in parenthesis) (CYP3A4 [8]): 27.72 ± 10.43 (-84 ± 7) %
9 | CCOC(=O)c1nc(C(Cl)(Cl)Cl)n(-c2ccc(Cl)cc2Cl)n1 [Fenchlorazole-ethyl] | 3.92 µM | 7.02 µM | 3.26 µM | 13.1 µM |  | Inactive |  |  |  | 
10 | Cc1c2ccccc2c(C)c2c1ccc1ccccc12 [7,12-Dimethylbenz(a)anthracene] |  |  |  |  |  |  |  |  |  | IC50 [5]: 32.7 µM; IC50 (human CYP2C9 [1]; CYP2C9 IC50): 27.3 µM; IC50 (human CYP2C19 [2]; CYP2C19 IC50): 6.09 µM; CYP2D6 IC50 (human CYP2D6 [7]): Inactive; IC50 (human CYP1A2 [9]; CYP1A2 IC50): 0.5 µM; IC50 (CYP3A4 [3]; CYP3A4 IC50): 22.6 µM
11 | C=CC(=O)OCCn1c(=O)n(CCOC(=O)C=C)c(=O)n(CCOC(=O)C=C)c1=O |  |  |  |  | Inactive |  |  |  | Inactive | IC50 (human CYP2C9 [1]): 35.7 µM; IC50 (human CYP2C19 [2]): 4.01 µM; IC50 (human CYP1A2 [9]): 58.1 µM; IC50 (CYP3A4 [3]): 0.25 µM
12 | O=C1c2ccccc2Cc2ccccc21 [Anthrone] |  |  |  |  | Inactive |  | 12.6 µM | 15.7 µM | Inactive | CYP1A2 Efficacy (in parenthesis) (human CYP1A2 [6]): 0.44 ± 0.07 (-99 ± 1) %; IC50 (human CYP1A2 [9]; [14]): 0.44 µM; CYP2C19 Efficacy (in parenthesis) (human CYP2C19 [10]): 15.72 ± 5.91 (-83 ± 4) %; IC50 (CYP3A4 [3]; [15]): 26.7 µM; CYP2C9 Efficacy (in parenthesis) (human CYP2C9 [11]): 12.58 ± 3.51 (-54 ± 8) %; CYP3A4 Efficacy (in parenthesis) (CYP3A4 [8]): 26.66 ± 4.8 (-63 ± 11) %
